Reference: paper PMC7606612, “Identification of HMGA2 inhibitors by AlphaScreen-based ultra-high-throughput screening assays” (Scientific Reports, 2020)

Key:
BTSC#30p = assay: Western blotting and qRT-PCR expression analysis, BTSC#30p; format: cell-based
Method: The single-cell suspension was obtained by mechanical disaggregation of the spheres and total proteins were extracted 48 h later, as previously described. After separation by SDS–polyacrylamide gel electrophoresis, proteins were blotted on nitrocellulose membranes (GE Healthcare Europe Gmb) and hybridized with the following antibodies: anti-HMGA1, anti-HMGA2 (Genetex) or affinity-purified anti-HMGA2, anti-α-actin (SantaCruz Biotechnologies). The single-cell suspension was obtained by mechanical disaggregation of the spheres and RNA was extracted 48 h later, by using Direct-zol RNA MiniPrep (Zymo Research). One μg of RNA was retrotranscribed, by using QuantiTect® Reverse Transcription Kit (Qiagen) and qRT-PCR was performed as described. The 2^–ΔΔCt formula was used to calculate the differential gene expression.

[1] = system: anaplastic thyroid carcinoma cell line 8505c; assay: ID2 mRNA expression in 8505c cells; format: cell-based, human; conditions: 200 and 400 µM
Description: The role of HMGA1 and HMGA2 in regulating ID2 transcription was confirmed by analyzing its expression in mouse embryonic fibroblasts (MEFs) knock-out for HMGA1, HMGA2, and the A1/A2 double mutant, respectively. […] We identified two AT-rich regions, hereafter indicated as “region A” and “region B”, in the human ID2 promoter, containing the HMGA2 consensus sequence[26] (Table S2) for our ChIP experiments. Due to availability, the high proliferation rate, and the expression of HMGA proteins, the anaplastic thyroid carcinoma cell line 8505c was used.
The single-cell suspension was obtained by mechanical disaggregation of the spheres and RNA was extracted 48 h later, by using Direct-zol RNA MiniPrep (Zymo Research). One μg of RNA was retrotranscribed, by using QuantiTect® Reverse Transcription Kit (Qiagen) and qRT-PCR was performed as described. The 2^–ΔΔCt formula was used to calculate the differential gene expression.

HMGA2 = biological target: T1, HMGA2 (Mus musculus, UniProt P52927); assay: Isothermal titration calorimetry (ITC), titration into HMGA2; format: binding, mammalian; conditions: for HMGA2 Binding site: number of sites
T1 construct: made in house
T1 sequence (P52927 2-108 limits assumed): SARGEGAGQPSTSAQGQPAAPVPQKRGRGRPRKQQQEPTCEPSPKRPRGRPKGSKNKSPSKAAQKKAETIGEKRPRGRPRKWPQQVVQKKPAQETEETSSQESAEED
Method: ITC experiments were conducted using a VP-ITC titration calorimeter (MicroCal, Inc., Northampton, MA) interfaced to a PC. Origin 7.0, supplied by the manufacturer was used for data acquisition. […] The heat liberated or absorbed is observed as a peak corresponding to the power required keeping the sample and reference cells at identical temperatures. The peak produced during the injection is converted to heat output by integration and corrected for cell volume and sample concentration. […] The net enthalpy for the titration reaction was determined by subtraction of the component heats of dilution.

BTSC#83 = assay: Growth curves (CellTiter), BTSC#83; format: cell-based; conditions: up to 200 μM
Method: BTSC#83 and BTSC#30p and their culture conditions have been described. For growth curves, suspension cultures were mechanically disaggregated and filtered through 37 µm filters (StemCell Technologies, Vancouver, Canada) in order to obtain bona fide single-cell suspension. […] Cell growth was assayed at the indicated time using the CellTiter Assay System (Promega). The growth conditions of 8505c anaplastic thyroid carcinoma cells and mouse Embryonic Fibroblasts (MEFs) knock-out for HMGA1, HMGA2, and HMGA1/A2 double mutant have been described previously[42],[64]. P values were calculated by using two-way ANOVA followed by Sidak’s multiple comparison test.

HMGA2-DNA interactions = biological target: T2, HMGA2-DNA interactions (Mus musculus, UniProt P52927); assay: LANCE TR-FRET secondary assay of HMGA2 binding to FL814; parameters: species or system mammalian; concentration or dose not given beside the values; conditions: cherry picked primary hits
T2 construct: made in house
T2 sequence (P52927 2-108 limits assumed): T1 sequence (P52927 2-108 limits assumed)
Method: In this study, we also developed a LANCE time-resolved fluorescence energy transfer (TR-FRET) assay as a secondary assay for our screening. The His-tagged HMGA2 and biotinylated oligomer FL814 were linked to Europium-labeled anti-6 × His antibody and APC-labeled streptavidin, respectively. A series of DNA binding studies were performed to determine the optimal conditions for the secondary Assay (Fig. S2). After these experiments, 12.5 nM of FL814 and 62.5 nM of HMGA2 were chosen for the assay, which is the same for the primary assay. The assay tolerated up to 0.25% DMSO without any significant change in signal (Fig. S2c). For a counterscreen assay to exclude those compounds that nonspecifically bind to the protein surface, an AlphaScreen assay of H4 peptide binding to bromodomain-containing protein 4 (BRD4) was adopted (Fig. S2e). Since we are looking for compounds with anti-metastasis or anti-obesity activities, compounds with high levels of cytotoxicity are undesirable. […] Furthermore, potential DNA-binding compounds, i.e., DNA intercalators, minor groove binders, and DNA alkylating agents, can be identified by analyzing their chemical structures and will be excluded as well.
Using a Labcyte Echo 555 acoustic dispenser 5 nL of DMSO were added to columns 1–4 and 45–48 of a white 1536 well plate, while 5 nL of 2 mM compounds in DMSO were added to columns 5–44. Using a Beckman BioRAPTR FRD bulk reagent dispenser 1 µL of assay buffer (10 mM Tris, 300 mM NaCl and 0.005% Tween 20) was added to columns 1 and 2. Next, 1 µL of assay buffer containing 125 nM HMGA2 was added to columns 3–48 with a Beckman BioRAPTR FRD bulk reagent dispenser. Finally, 1 µL of assay buffer containing 25 nM FL814 was added to every well of the plate using a Beckman BioRAPTR FRD bulk reagent dispenser. The plate was then centrifuged at 200 × g for 1 min. After 30 min at room temperature 1 µL of assay buffer containing 250 nM LANCE Ultra ULight-anti-6xHIS and 1 µL of assay buffer containing 12 nM LANCE Eu-W1024 Streptavidin was dispensed into every well using a Beckman BioRAPTR FRD bulk reagent dispenser. The plates were then centrifuged at 200 × g for 1 min. After 1 h at room temperature the plates were read on a Perkin Elmer Envision multimode plate reader in TR-FRET mode (excitation @340 nm, first emission at @665 nm, second emission at 615 nm).

–TΔS (HMGA2; first type of binding sites): 5.56 kcal/mol
HMGA2 Binding site (HMGA2; first type): three
HMGA2 Binding site (HMGA2; first type, listed as Suramin): 2.81
HMGA2 Binding site (HMGA2; second type): two
HMGA2 Binding site (HMGA2; second type, listed as Suramin): 2
− TΔS (HMGA2; second type of binding sites): 0.24 kcal/mol
Kd (HMGA2; second type of binding sites, read-out: HMGA2 Ka (M^−1) (converted)): 23 µM
total of suramin binding sites on HMGA2 (HMGA2; two types, confirmed by mass spectrometry): five
inhibition of HMGA2-DNA interactions (HMGA2-DNA interactions): ≥ 50%
Compound: Cc1ccc(C(=O)Nc2ccc(S(=O)(=O)O)c3cc(S(=O)(=O)O)cc(S(=O)(=O)O)c23)cc1NC(=O)c1cccc(NC(=O)Nc2cccc(C(=O)Nc3cc(C(=O)Nc4ccc(S(=O)(=O)O)c5cc(S(=O)(=O)O)cc(S(=O)(=O)O)c45)ccc3C)c2)c1 [suramin]
ID2 expression (BTSC#30p; 100 μM for 48 h): induces reduction in ID2 expression
expression of HMGA1 (BTSC#30p; Western blotting and qRT-PCR): slightly reduced
expression of HMGA2 (BTSC#30p; Western blotting and qRT-PCR): slightly reduced
expression of SNAIL (BTSC#30p; qRT-PCR, 100 µM for 48 h): significantly reduced
expression of ID2 (BTSC#30p; qRT-PCR, 100 µM for 9 days): significantly reduced
expression of MSI1 (BTSC#30p; qRT-PCR, 100 µM for 9 days): significantly reduced
expression of OLIG2 (BTSC#30p; qRT-PCR, 100 µM for 9 days): increased
mRNA expression level of ID2 [1]: significantly decreased
cell growth (BTSC#83): did not significantly affect the cell growth
